Data from patent US11266616B2, “Compositions and methods for inhibiting kinase activity” (BRANDEIS UNIVERSITY, priority 2016, dated 2022).
“Also recorded” adds a separate entry of the source.

Biological target: T1, Aurora A kinase and TPX2 (Homo sapiens, UniProt O14965, T288V)
T1 construct: 1 μM A^122-403 T288V, 100 μM TPX2^1-45 and 1 mM kemptide was used
T1 sequence (O14965 122-403 T288V): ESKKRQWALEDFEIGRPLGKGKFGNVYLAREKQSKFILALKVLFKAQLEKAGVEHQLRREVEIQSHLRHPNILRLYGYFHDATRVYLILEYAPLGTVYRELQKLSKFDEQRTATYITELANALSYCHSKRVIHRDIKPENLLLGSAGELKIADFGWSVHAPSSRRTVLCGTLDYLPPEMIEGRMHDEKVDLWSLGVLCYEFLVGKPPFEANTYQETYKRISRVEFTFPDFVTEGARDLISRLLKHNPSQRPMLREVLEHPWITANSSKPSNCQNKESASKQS
Assay: Kemptide phosphorylation by dephosphorylated Aurora A kinase and TPX2 with increasing PS48 (TPX2 competition)
Type: biochemical
Settings: 1 μM A122-403 T288V, 100 μM TPX2 1-45, 1 mM kemptide; FIGS. 28A-28B
Procedure: FIGS. 28A-28B is a set of plots showing PS48 binds to the TPX2 binding site of Aurora A kinase and PS48 competes with TPX2 for binding to Aurora A kinase in vitro. FIG. 28A is a plot showing measurements of phosphorylation of kemptide (a peptide substrate for Aurora A kinase) when incubated with dephosphorylated Aurora A kinase and TPX2 and various increasing amounts of PS48. […] In the assays shown, 1 μM A^122-403 T288V, 100 μM TPX2^1-45 and 1 mM kemptide was used.
Aurora A, either phosphorylated/dephosphorylated wild type or mutant protein, was mixed with either AP ([…]) (SEQ ID NO: 5), Kemptide (LRRASLG) (SEQ ID NO: 6), or Lats2 ([…]) (SEQ ID NO: 7), in the absence or presence of 50 μM TPX2 in kinase buffer (20 mM TrisHCl, 200 mM NaCl, 3% [vol/vol] glycerol, 20 mM MgCl2, 1 mM TCEP, pH 7.50). These substrates comprise the consensus sequence for Aurora A ([R/K/N]—R—X—[S/T]-B where B is any hydrophobic residue with the exception of Pro) (Ferrari et al., 2005, Biochem. J., 390(Pt 1):293-302; Ohashi et al., 2006, Oncogene, 25:7691-7702; Sardon et al., 2010, EMBO Reports, 11:977-984). Peptides were ordered through Genscript. For HPLC-based activity assays the following protocol was used. The reaction was initiated with the addition of 5 mM ATP. […]

O=C(O)/C=C(/CCc1ccc(Cl)cc1)c1ccccc1 [PS48]
effect of PS48 on kinase activity of Aurora A incubated with TPX2: inhibits kinase activity by competing off TPX2 binding; also recorded: disrupting binding of TPX2 to Aurora A kinase
